SMILES strings stand for the structures. Where “and” joins values, the source holds several entries; their conditions need not be identical. Identical values can stand only once. Toxic doses and inconclusive results are not listed.

The subject of this assay is L1210 leukemia ip in BDF1 mice, survival T/C. Put plainly: NCI In Vivo Anticancer Drug Screen. Data for tumor model L1210 Leukemia (intraperitoneal) in B6D2F1 (BDF1) mice. The note with it: endpoint: mean survival time, higher = longer survival. The gist of the method: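 Ratio derived from survival: compound-dosed mice over vehicle-dosed mice, all bearing a transplantable tumor.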

Setting [1] is: dose: 100.0 mg/kg/injection, schedule: Q01DX009 (ip), vehicle: Klucel (hydroxypropylcellulose) (HPC).
Where [2] appears, read: dose: 100.0 mg/kg/injection, schedule: Q04DX003 (ip), vehicle: Klucel (hydroxypropylcellulose) (HPC).
Where [3] appears, read: dose: 100.0 mg/kg/injection, schedule: Q04DX003 (ip), vehicle: saline.
The mark [4] stands for this setting: dose: 200.0 mg/kg/injection, schedule: Q04DX003 (ip), vehicle: saline.
Setting [5] is: dose: 50.0 mg/kg/injection, schedule: Q01DX001 (ip), vehicle: saline.
[6] abbreviates: dose: 100.0 mg/kg/injection, schedule: Q01DX001 (ip), vehicle: saline.
Setting [7] is: dose: 200.0 mg/kg/injection, schedule: Q01DX001 (ip), vehicle: saline.
[8] abbreviates: dose: 400.0 mg/kg/injection, schedule: Q01DX001 (ip), vehicle: saline.
Setting [9] is: dose: 200.0 mg/kg/injection, schedule: Q04DX003 (ip), vehicle: Klucel (hydroxypropylcellulose) (HPC).
Where [10] appears, read: dose: 400.0 mg/kg/injection, schedule: Q04DX003 (ip), vehicle: Klucel (hydroxypropylcellulose) (HPC).
Where [11] appears, read: dose: 100.0 mg/kg/injection, schedule: Q04DX002 (ip), vehicle: saline.
Setting [12] is: dose: 200.0 mg/kg/injection, schedule: Q04DX002 (ip), vehicle: saline.
The mark [13] stands for this setting: dose: 400.0 mg/kg/injection, schedule: Q04DX002 (ip), vehicle: saline.
Where [14] appears, read: dose: 200.0 mg/kg/injection, schedule: Q01DX009 (ip), vehicle: Klucel (hydroxypropylcellulose) (HPC).
[15] abbreviates: dose: 400.0 mg/kg/injection, schedule: Q01DX009 (ip), vehicle: Klucel (hydroxypropylcellulose) (HPC).

As to `Cc1nc(N)[nH]c(=O)c1NC(=O)CCc1ccccc1`, the T/C (dose: 6.25 mg/kg/injection, schedule: Q01DX001 (ip), vehicle: saline with Tween-80) was 105 % of control; the T/C (dose: 12.5 mg/kg/injection, schedule: Q01DX001 (ip), vehicle: saline with Tween-80) is 101 % of control; the T/C (dose: 25.0 mg/kg/injection, schedule: Q01DX001 (ip), vehicle: saline with Tween-80) is 98 % of control.
As for `CC(=O)NCC1CCCCC1`, the T/C runs as follows: (dose: 25.0 mg/kg/injection, schedule: Q01DX009 (ip), vehicle: Klucel (hydroxypropylcellulose) (HPC)) 98 % of control; (dose: 25.0 mg/kg/injection, schedule: Q04DX003 (ip), vehicle: Klucel (hydroxypropylcellulose) (HPC)) 100 % of control; (dose: 50.0 mg/kg/injection, schedule: Q01DX009 (ip), vehicle: Klucel (hydroxypropylcellulose) (HPC)) 92 % of control; (dose: 50.0 mg/kg/injection, schedule: Q04DX003 (ip), vehicle: Klucel (hydroxypropylcellulose) (HPC)) 102 % of control; under setting [1], 110 % of control; under setting [2], 105 % of control.
On to `CCCCN1CCCC(O)C1` (centres undefined), for which the T/C by setting is: under setting [3], 97 % of control; under setting [4], 104 % of control.
In the case of `CCC[CH2][Sn]([I])([CH2]I)[CH2]CCC`, the T/C was 112 % of control (dose: 6.25 mg/kg/injection, schedule: Q04DX002 (ip), vehicle: saline with Tween-80) and 112 % of control (dose: 12.5 mg/kg/injection, schedule: Q04DX002 (ip), vehicle: saline with Tween-80).
As for `N#CCCn1c2ccccc2c2ccccc21`, the T/C under setting [5] is 96 % of control; the T/C (dose: 50.0 mg/kg/injection, schedule: Q04DX002 (ip), vehicle: gum acacia) was 91 % of control; the T/C under setting [6] was 102 % of control; the T/C (dose: 100.0 mg/kg/injection, schedule: Q04DX002 (ip), vehicle: gum acacia) was 91 % of control; the T/C under setting [7] is 102 % of control; the T/C (dose: 200.0 mg/kg/injection, schedule: Q04DX002 (ip), vehicle: gum acacia) is 98 % of control. The T/C under setting [8] is 96 % of control.
`COc1ccccc1/C=C(\C(=O)O)c1cccc2ccccc12`: the T/C reads like this: under setting [2], 93 % of control; under setting [9], 100 % of control; under setting [10], 98 % of control.
For the compound `Cc1nc(N)nn1C`, the T/C is, setting by setting: under setting [11], 97 % of control; under setting [12], 110 % of control; under setting [13], 100 % of control.
On to `O=C1OC(=O)c2ccc([N+](=O)[O-])c3c(C(=O)O)ccc1c23`, for which the T/C by setting is: under setting [5], 101 % of control; under setting [6], 104 % of control; under setting [7], 104 % of control; under setting [8], 104 % of control.
As to `CC1CC2(CCC1=O)OCCO2` (centres undefined), the T/C was 95 % of control (dose: 100.0 mg/kg/injection, schedule: Q01DX001 (ip), vehicle: other); 95 % of control (dose: 200.0 mg/kg/injection, schedule: Q01DX001 (ip), vehicle: other); 96 % of control (dose: 400.0 mg/kg/injection, schedule: Q01DX001 (ip), vehicle: other).
With `CN=C(NN(C)C)c1ccc(NC(=O)c2ccc(C(=O)Nc3ccc(C(=NC)NN(C)C)cc3)cc2)cc1`, the T/C is, setting by setting: (dose: 2.5 mg/kg/injection, schedule: Q01DX Z (ip), vehicle: carboxymethylcellulose (CMC)) 97 % of control; (dose: 5.0 mg/kg/injection, schedule: Q01DX Z (ip), vehicle: carboxymethylcellulose (CMC)) 111 % of control; (dose: 25.0 mg/kg/injection, schedule: Q01DX Z (oral), vehicle: carboxymethylcellulose (CMC)) 116 % of control; (dose: 50.0 mg/kg/injection, schedule: Q01DX Z (oral), vehicle: carboxymethylcellulose (CMC)) 110 % of control; (dose: 100.0 mg/kg/injection, schedule: Q01DX Z (oral), vehicle: carboxymethylcellulose (CMC)) 102 % of control; (dose: 200.0 mg/kg/injection, schedule: Q01DX Z (oral), vehicle: carboxymethylcellulose (CMC)) 104 % of control.
Consider `C1CCN(CCC2CCCCN2)CC1` (centres undefined), for which the T/C is, setting by setting: (dose: 25.0 mg/kg/injection, schedule: Q04DX003 (ip), vehicle: saline) 105 % of control; (dose: 50.0 mg/kg/injection, schedule: Q04DX003 (ip), vehicle: saline) 94 % of control; under setting [3], 101 % of control and 92 % of control.
On to `COc1ccc(/C=C(\NC(C)=O)C(=O)O)cc1`, for which the T/C is, setting by setting: under setting [1], 104 % of control; under setting [2], 100 % of control; under setting [14], 97 % of control; under setting [9], 100 % of control; under setting [15], 98 % of control; under setting [10], 112 % of control.
On to `COc1ccc2c(Nc3ccc(NS(C)(=O)=O)cc3)c3ccccc3nc2c1`, for which the T/C by setting is: (dose: 6.25 mg/kg/injection, schedule: Q01DX009 (ip), vehicle: saline with Tween-80) 183 % of control; (dose: 12.5 mg/kg/injection, schedule: Q01DX009 (ip), vehicle: saline with Tween-80) 181 % of control; (dose: 25.0 mg/kg/injection, schedule: Q01DX009 (ip), vehicle: saline with Tween-80) 117 % of control; (dose: 25.0 mg/kg/injection, schedule: Q01DX009 (sc), vehicle: saline) 164 % of control; (dose: 44.0 mg/kg/injection, schedule: Q04DX003 (ip), vehicle: saline with Tween-80) 172 % of control; (dose: 50.0 mg/kg/injection, schedule: Q01DX009 (sc), vehicle: saline) 95 % of control. For the same compound, the T/C is, setting by setting: (dose: 67.0 mg/kg/injection, schedule: Q04DX003 (ip), vehicle: saline with Tween-80) 169 % of control; (dose: 100.0 mg/kg/injection, schedule: Q04DX003 (ip), vehicle: saline with Tween-80) 276 % of control.
With `CC(C)C(C=NCC(CCN(C)C)(c1ccc2ccccc2c1)C(C)C)(CCN(C)C)c1ccc2ccccc2c1` (centres undefined), the T/C runs as follows: (dose: 6.25 mg/kg/injection, schedule: Q04DX002 (ip), vehicle: saline + alcohol) 87 % of control; (dose: 12.5 mg/kg/injection, schedule: Q04DX002 (ip), vehicle: saline + alcohol) 93 % of control; (dose: 25.0 mg/kg/injection, schedule: Q04DX002 (ip), vehicle: saline + alcohol) 93 % of control.
For `N#CC1CC2c3ccccc3C1([N+](=O)[O-])c1ccccc12` (centres undefined), the T/C is 90 % of control (dose: 100.0 mg/kg/injection, schedule: Q01DX001 (ip), vehicle: Klucel (hydroxypropylcellulose) (HPC)); 98 % of control under setting [1]; 104 % of control (dose: 200.0 mg/kg/injection, schedule: Q01DX001 (ip), vehicle: Klucel (hydroxypropylcellulose) (HPC)); 98 % of control under setting [14]; 96 % of control (dose: 400.0 mg/kg/injection, schedule: Q01DX001 (ip), vehicle: Klucel (hydroxypropylcellulose) (HPC)); 103 % of control under setting [15].
Consider `NCC1OCOC2C(C(=O)O)OCOC12` (centres undefined), for which the T/C was 101 % of control (dose: 50.0 mg/kg/injection, schedule: Q04DX002 (ip), vehicle: saline); 96 % of control under setting [11]; 101 % of control under setting [12]; 96 % of control under setting [13].
In the case of `O=P(Cc1ccccc1)(Cc1ccccc1)Cc1ccccc1`, the T/C under setting [1] was 100 % of control, the T/C under setting [14] was 91 % of control and the T/C under setting [15] was 96 % of control.
On to `Oc1ccc(CN2CCCCC2)c2cccnc12`, for which the T/C by setting is: (dose: 75.0 mg/kg/injection, schedule: Q01DX001 (ip), vehicle: carboxymethylcellulose (CMC)) 106 % of control; (dose: 150.0 mg/kg/injection, schedule: Q01DX001 (ip), vehicle: carboxymethylcellulose (CMC)) 106 % of control.
With `COc1ccccc1NCc1cccc([N+](=O)[O-])c1`, the T/C by setting is: under setting [1], 100 % of control; under setting [3], 100 % of control; under setting [14], 94 % of control; under setting [4], 94 % of control; (dose: 400.0 mg/kg/injection, schedule: Q04DX003 (ip), vehicle: saline) 86 % of control.
